{"source": "patent US11402382B2", "about": "“Diagnostic and therapeutic methods for cancer” (Genentech, Inc., priority 2017, dated 2022);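 on Colitis: Open-label multicenter randomized phase 2 trial with three treatment arms, safety set restricted to patients who actually received study drug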;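 on Decreased blood cortisol/adrenal insufficiency: Open-label multicenter randomized phase 2 trial with three treatment arms, safety set restricted to patients who actually received study drug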;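 on Pneumonitis: Open-label multicenter randomized phase 2 trial with three treatment arms, safety set restricted to patients who actually received study drug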;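 on TSH decreased/hypothyroidism: Open-label multicenter randomized phase 2 trial with three treatment arms, safety set restricted to patients who actually received study drug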", "key": {"[1]": {"details": "in vivo", "protocol": "Study treatment consisted of atezolizumab 1200 mg fixed intravenous dose +bevacizumab 15 mg/kg every three weeks, atezolizumab 1200 mg fixed intravenous dose every three weeks, or sunitinib 50 mg/day orally for four weeks followed by two weeks of rest. On disease progression (as assessed by the investigator per RECIST v1.1), patients randomized to atezolizumab monotherapy or sunitinib had the option to cross over and receive the atezolizumab+bevacizumab combination in some regions (option was not available in Europe). In the absence of unacceptable toxicity, treatment with the combination continued until evidence of progressive disease. Where permitted, patients in the atezolizumab-containing arms could continue to be treated beyond disease progression per RECIST v1.1 until lack of clinical benefit; those in non-European nations could cross over to atezolizumab+bevacizumab therapy at any time after disease progression per RECIST v1.1, provided all eligibility criteria were met."}, "[2]": {"test_system": "previously untreated metastatic renal cell carcinoma (mRCC)", "experiment": "IMmotion150: PFS and ORR in PD-L1 IHC and gene expression signature (Teff, Angio, Myeloid) subgroups", "assay_type": "in vivo, human", "details": "for PFS HR (95% CI) vs Sun: unstratified", "description": "PD-L1 status on tumor-infiltrating immune cells (IC) was assessed in the phase II IMmotion150 study by immunohistochemistry (IHC) using the anti-human PD-L1 rabbit monoclonal antibody, SP142, and scored using an identical IHC scoring criteria (IC1/2/3=≥1% of tumor-infiltrating lymphocytes are PD-L1-positive; IC2/3=≥5% of tumor-infiltrating lymphocytes are PD-L1-positive) (n=297). PD-L1 status can be assessed as described in International Patent Application Publication Nos. WO 2016/183326 and WO 2016/196298. Mutation evaluations by whole exome sequencing (WES) and gene expression analyses by RNA-Seq (n=263) were also performed. For the gene expression analyses, gene expression levels were evaluated for T effector and IFNγ response (Teff) genes (CD8A, IFNG, PRF1, EOMES, and PD-L1), as well as for angiogenesis-related (Ang) genes (VEGFA, KDR, ESM1, PECAM1, ANGPTL4, and CD34), and myeloid inflammation-related (Myeloid) genes (IL6, CXCL1, CXCL2, CXCL3, CXCL8, and PTGS2). The Teff genes at low expression levels (i.e., below the median expression levels of the evaluated Teff genes; “Teff low”) and high expression levels (i.e., at or above the median expression levels of the evaluated Teff genes; “Teff high”) were evaluated in relation to progress-free survival (PFS) per RECIST v.1.1 via Independent Review Facility (IRF) assessment. The Ang genes at low expression levels (i.e., below the median expression levels of the evaluated Ang genes; “Ang low”) and high expression levels (i.e., at or above the median expression levels of the evaluated Ang genes; “Ang high”) were also evaluated in relation to PFS per RECIST v.1.1 via IRF assessment. The Myeloid genes at low expression levels (i.e., below the median expression levels of the evaluated Myeloid genes; “Myeloid low”) and high expression levels (i.e., at or above the median expression levels of the evaluated Myeloid genes; “Myeloid high”) were also evaluated in relation to PFS per RECIST v.1.1 via IRF assessment. To determine the median expression levels, first a Z-score was calculated for the normalized expression of all of the genes in a group. The median level of all the Z-scores across the dataset was used as a reference level to identify biomarker high versus biomarker low subgroups.\nTumor specimens from patients acquired <12 months prior to study treatment were required for enrollment in the study. Tissue was prospectively tested for PD-L1 expression on IC by a central laboratory using the SP142 IHC assay (VENTANA, Tucson, Ariz.). IC staining was defined as follows: any discernible PD-L1 staining of any intensity in IC covering <1% or absent, between ≥1% and <5%, between ≥5% and <10%, or ≥10% of tumor area.\nKaplan-Meier methodology was used to estimate the median PFS for each treatment arm, and Kaplan-Meier curves were produced. The primary analysis was triggered when 140 INV-PFS events occurred among patients treated with atezolizumab+bevacizumab and with sunitinib or among patients treated with atezolizumab alone and with sunitinib, whichever occurred later. […] The stratification factors included prior nephrectomy, tumor PD-L1 status, and MSKCC score and were determined based on data from the electronic case report form; if such data were missing, data collected by the IxRS at the time of randomization were used. Tumor specimens were prospectively tested for PD-L1 expression on ICs by a central laboratory using the SP142 IHC assay (VENTANA, Tucson, Ariz.). IC staining was defined as follows: any discernible PD-L1 staining of any intensity in IC covering <1% or absent (ICO), between ≥1% and <5% (IC1), between ≥5% and <10% (IC2), or ≥10% (IC3) of tumor area occupied by tumor cells, associated intratumoral, and contiguous peri-tumoral desmoplastic stroma.\nWhole transcriptome profiles were generated for 263 patients using TRUSEQ® RNA Access technology (ILLUMINA®). RNAseq reads were first aligned to ribosomal RNA sequences to remove ribosomal reads. […]"}, "[3]": {"details": "Teff^HighMyeloid^High vs Teff^HighMyeloid^Low"}}, "data": [{"molecule": "Atezo: anti-PD-L1 antibody atezolizumab (CAS Registry Number: 1422185-06-5), Genentech, also known as MPDL3280A", "values": [{"measurement": "Colitis", "setting": "[1]", "value": 0, "unit": "n"}, {"measurement": "Decreased blood cortisol/adrenal insufficiency", "setting": "[1]", "value": 0, "unit": "n"}, {"measurement": "Pneumonitis", "setting": "[1]", "value": 0, "unit": "n"}, {"measurement": "TSH decreased/hypothyroidism", "setting": "[1]", "value": 0, "unit": "n"}, {"measurement": "TSH increased/hyperthyroidism", "setting": "[1]", "value": 0, "unit": "n"}, {"measurement": "treatment-related AE leading to discontinuation of treatment: demyelination", "setting": "[1]", "value": 1, "unit": "%"}, {"measurement": "treatment-related AE leading to discontinuation of treatment: nephritis", "setting": "[1]", "value": 1, "unit": "%"}, {"measurement": "treatment-related AE leading to discontinuation of treatment: pancreatitis", "setting": "[1]", "value": 1, "unit": "%"}, {"measurement": "PFS HR (95% CI) vs Sunitinib", "setting": "[2]; Ang high (Angio^High) subgroup", "value": 1.46}, {"measurement": "PFS HR (95% CI) vs Sunitinib", "setting": "[2]; Ang low (Angio^Low) subgroup", "value": 0.75}, {"measurement": "PFS HR (95% CI), within arm analysis", "setting": "[2]; Angio^High vs Angio^Low", "value": 0.74}, {"measurement": "PFS HR (95% CI) vs Sunitinib", "setting": "[2]; Myeloid^High subgroup", "value": 2.03}, {"measurement": "PFS HR (95% CI), within arm analysis", "setting": "[2]; Myeloid^High vs Myeloid^Low", "value": 2.98}, {"measurement": "PFS HR (95% CI) vs Sunitinib", "setting": "[2]; Myeloid^Low subgroup", "value": 0.53}, {"measurement": "PFS HR (95% CI) vs Sun", "setting": "[2]; PD-L1 IHC IC1/2/3", "value": 0.97}, {"measurement": "PFS HR (95% CI) vs Sun", "setting": "[2]; PD-L1 IHC IC2/3", "value": 0.54}, {"measurement": "PFS HR (95% CI) vs Sunitinib", "setting": "[2]; Teff high subgroup (at or above median)", "value": 0.85}, {"measurement": "PFS HR (95% CI) vs Sunitinib", "setting": "[2]; Teff low subgroup (below median)", "value": 1.33}, {"measurement": "PFS HR (95% CI) vs Sunitinib", "setting": "[2]; Teff^High Myeloid^High subgroup", "value": 1.81}, {"measurement": "PFS HR (95% CI) vs Sunitinib", "setting": "[2]; Teff^High Myeloid^Low subgroup", "value": 0.47}, {"measurement": "PFS HR (95% CI), within arm analysis", "setting": "[2]; Teff^High vs Teff^Low", "value": 0.83}, {"measurement": "PFS HR (95% CI), within arm analysis", "setting": "[2]; [3]", "value": 3.82}]}, {"molecule": "CCN(CC)CCNC(=O)c1c(C)[nH]c(/C=C2\\C(=O)Nc3ccc(F)cc32)c1C", "note": "[Sunitinib, N-[2-(Diethylamino)ethyl]-5-[(Z)-(5-fluoro-2-oxo-1,2-dihydro-3H-indol-3-ylidene)methyl]-2,4-dimethyl-1H-pyrrole-3-carboxamide]", "values": [{"measurement": "ORR", "setting": "[2]; Angio^High subgroup", "value": 45, "unit": "%"}, {"measurement": "PFS HR (95% CI), within arm analysis", "setting": "[2]; Angio^High vs Angio^Low", "value": 0.31}, {"measurement": "ORR", "setting": "[2]; Angio^Low subgroup", "value": 10, "unit": "%"}, {"measurement": "PFS HR (95% CI), within arm analysis", "setting": "[2]; Myeloid^High vs Myeloid^Low", "value": 0.82}, {"measurement": "PFS HR (95% CI), within arm analysis", "setting": "[2]; Teff^High vs Teff^Low", "value": 1.31}, {"measurement": "PFS HR (95% CI), within arm analysis", "setting": "[2]; [3]", "value": 1.10}]}]}
